From patent US20120121610A1, “THERAPEUTIC AGENT AND ASSAY” (priority 2009, published 2012) come the findings set out here.

Assay [1] deals with HeLa cells. The assay can be described thus: BrdU pulse / PI bivariate FACS analysis of replisome stability. Format: cell-based. The note with it: hydroxyurea 24 hr. As to the method:
In order to evaluate the effect of Claspin depletion on replisome stability, the ability of Claspin-depleted cells to maintain functional replisomes in the continuous presence of imposed replicational stress was investigated (FIG. 1). To do this, cells were treated with buffer control or 2 mM hydroxyurea (HU) for 24 h, then exposed to a 30 min pulse of BrdU, prior to fixation and PI staining, and subsequent bivariate FACS analysis.
(§1) HeLa or HCC1937 cells were seeded at 5×10^4 or 2×10^5 cells into 6-well tissue culture plates respectively, in 1 mL of their media and left for 24 hours. Cells were then washed twice with warm PBS and transfected twice over 48 hours with SMARTpool™ siRNA against Claspin (Dharmacon, Chicago, Ill., USA) at a concentration of 100 nM for 5 hours in serum free media (OptiMEM (Invitrogen)) using Oligofectamine (Invitrogen) as per manufacturer's instructions. After each transfection, cells were then washed once with warm PBS, and 1.5 mL of media added and then left for 19 hours. After transfection cells were trypsinized and seeded into 60 mm dishes and left in fresh media for 24 hours before being treated with either 0 or 2 mM HU for 24 hours. Alternatively cells were untreated, left in a flow cabinet for an equivalent time. […]
For orientation: A flow cytometer gives signals particle by particle.

Assay [2] has as its system HCC1937 cells. Described as above. The following applies: mock siRNA-treated HCC1937 cells. It counts as cell-based. The procedure:
BRCA1 has been implicated previously in the cellular response to IR, and BRCA1-deficient cells fail to activate Chk1 following IR exposure. The inventors investigated the effect of siRNA-mediated knockdown of Claspin in HCC1937 cells which lack functional BRCA1 and which have been previously shown to have a defective G2 checkpoint, failing to arrest on exposure to IR. […] The loss of BrdU incorporation was particularly observed in mid- to late-S phase cells.
as §1

For assay [3], the target named is T1, MDC1 (UniProt Q14676 1-2089).
T1 construct: Endogenous protein in HeLa whole cell extract
The assay can be described thus: co-immunoprecipitation with anti-Chk1 antibody from HeLa cell extracts, immunoblot. The procedure:
(§2) Cells were then lysed through 3 freeze/thaw cycles, and clarified by centrifugation at 14,000 rpm for 5 mins at 4° C. The supernatant was then removed and assayed for concentration by Bradford assay (Pierce) and aliquots stored at −70° C. until use. For immunoblotting 25-60 μg of whole cell extract was used per well in Laemmli SDS loading buffer. Extracts were separated on 6-12% SDS-PAGE gels before being transferred to nitrocellulose membrane (Protran) for probing. Membranes were blocked in either 5% Marvel milk or 5% BSA according to antibody manufacturer's guidelines. Membranes were then washed before being probed with primary antibodies diluted in blocking buffer. […] Secondary antibodies were anti-rabbit IgG-HRP, anti-sheep IgG-HRP and anti-mouse IgG-HRP (Jackson Immunologicals) and bands were detected using enhanced chemiluminescence (ECL) (Amersham Pharmacia) and autoradiographic film (FUJI film).
(§3) Immunoprecipitation (IP) as carried out with 500 μg to 1 mg of whole cell extract per IP. […] Complexes isolated were then analysed by immunoblotting.
For orientation: A western blot detects proteins with antibodies after separation by electrophoresis.

Assay [4] concerns the target T2, TopBP1 (UniProt Q92547 1-1522).
T2 construct: Endogenous protein in HeLa whole cell extract
The assay is described as above. As to the method:
as §2, §3

T1 sequence (Q14676 whole entry): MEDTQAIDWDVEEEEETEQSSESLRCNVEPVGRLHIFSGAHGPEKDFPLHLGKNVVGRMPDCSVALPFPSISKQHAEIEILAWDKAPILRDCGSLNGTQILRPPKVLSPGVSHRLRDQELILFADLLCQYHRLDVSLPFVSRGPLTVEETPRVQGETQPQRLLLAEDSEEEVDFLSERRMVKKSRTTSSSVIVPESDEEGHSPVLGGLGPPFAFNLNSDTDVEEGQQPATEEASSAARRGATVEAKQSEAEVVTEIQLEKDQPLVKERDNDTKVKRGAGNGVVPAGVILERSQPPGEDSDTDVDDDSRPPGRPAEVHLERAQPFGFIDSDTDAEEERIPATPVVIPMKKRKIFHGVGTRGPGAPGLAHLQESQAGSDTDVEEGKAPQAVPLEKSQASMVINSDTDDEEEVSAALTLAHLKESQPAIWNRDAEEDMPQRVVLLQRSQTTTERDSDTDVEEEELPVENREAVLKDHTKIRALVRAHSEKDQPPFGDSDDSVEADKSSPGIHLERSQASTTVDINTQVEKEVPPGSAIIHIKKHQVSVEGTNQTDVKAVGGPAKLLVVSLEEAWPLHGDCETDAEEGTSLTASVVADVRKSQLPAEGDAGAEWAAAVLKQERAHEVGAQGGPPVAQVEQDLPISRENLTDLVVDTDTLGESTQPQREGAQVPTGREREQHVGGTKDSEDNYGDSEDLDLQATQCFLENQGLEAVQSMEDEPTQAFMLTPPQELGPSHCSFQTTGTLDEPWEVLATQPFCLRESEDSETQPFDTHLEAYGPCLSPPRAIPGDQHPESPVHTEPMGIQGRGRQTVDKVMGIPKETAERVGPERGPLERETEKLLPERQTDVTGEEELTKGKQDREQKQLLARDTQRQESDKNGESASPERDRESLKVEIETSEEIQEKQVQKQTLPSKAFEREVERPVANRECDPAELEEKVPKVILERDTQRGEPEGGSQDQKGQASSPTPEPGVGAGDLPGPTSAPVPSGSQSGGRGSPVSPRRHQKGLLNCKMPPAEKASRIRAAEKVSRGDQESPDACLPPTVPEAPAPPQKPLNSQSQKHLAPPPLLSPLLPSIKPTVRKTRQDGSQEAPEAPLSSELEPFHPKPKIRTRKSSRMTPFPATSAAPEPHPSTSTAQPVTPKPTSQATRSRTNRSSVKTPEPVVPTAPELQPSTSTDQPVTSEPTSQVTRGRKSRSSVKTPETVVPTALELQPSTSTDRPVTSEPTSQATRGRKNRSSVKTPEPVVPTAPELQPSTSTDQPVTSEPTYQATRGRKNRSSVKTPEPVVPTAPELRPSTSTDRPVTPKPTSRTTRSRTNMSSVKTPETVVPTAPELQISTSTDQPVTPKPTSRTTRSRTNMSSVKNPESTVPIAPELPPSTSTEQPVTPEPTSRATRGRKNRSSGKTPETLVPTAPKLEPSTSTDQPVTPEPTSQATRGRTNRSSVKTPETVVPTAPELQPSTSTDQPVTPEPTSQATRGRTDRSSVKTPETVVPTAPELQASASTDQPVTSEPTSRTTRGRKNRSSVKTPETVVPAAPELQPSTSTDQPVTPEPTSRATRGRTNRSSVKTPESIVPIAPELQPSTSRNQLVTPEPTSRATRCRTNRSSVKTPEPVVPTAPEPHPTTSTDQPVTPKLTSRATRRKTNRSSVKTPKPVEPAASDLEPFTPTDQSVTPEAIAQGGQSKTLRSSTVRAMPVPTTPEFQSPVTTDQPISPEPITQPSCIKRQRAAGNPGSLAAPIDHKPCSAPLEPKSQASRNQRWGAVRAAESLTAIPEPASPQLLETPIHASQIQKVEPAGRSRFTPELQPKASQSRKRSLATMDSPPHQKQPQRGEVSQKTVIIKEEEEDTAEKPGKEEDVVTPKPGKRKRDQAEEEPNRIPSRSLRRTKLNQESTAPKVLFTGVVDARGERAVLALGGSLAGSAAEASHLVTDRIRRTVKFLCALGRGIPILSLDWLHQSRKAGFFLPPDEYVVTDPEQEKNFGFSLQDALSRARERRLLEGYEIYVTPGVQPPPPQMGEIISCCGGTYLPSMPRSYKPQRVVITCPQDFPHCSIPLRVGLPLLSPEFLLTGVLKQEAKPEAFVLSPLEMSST
T2 sequence (Q92547 whole entry): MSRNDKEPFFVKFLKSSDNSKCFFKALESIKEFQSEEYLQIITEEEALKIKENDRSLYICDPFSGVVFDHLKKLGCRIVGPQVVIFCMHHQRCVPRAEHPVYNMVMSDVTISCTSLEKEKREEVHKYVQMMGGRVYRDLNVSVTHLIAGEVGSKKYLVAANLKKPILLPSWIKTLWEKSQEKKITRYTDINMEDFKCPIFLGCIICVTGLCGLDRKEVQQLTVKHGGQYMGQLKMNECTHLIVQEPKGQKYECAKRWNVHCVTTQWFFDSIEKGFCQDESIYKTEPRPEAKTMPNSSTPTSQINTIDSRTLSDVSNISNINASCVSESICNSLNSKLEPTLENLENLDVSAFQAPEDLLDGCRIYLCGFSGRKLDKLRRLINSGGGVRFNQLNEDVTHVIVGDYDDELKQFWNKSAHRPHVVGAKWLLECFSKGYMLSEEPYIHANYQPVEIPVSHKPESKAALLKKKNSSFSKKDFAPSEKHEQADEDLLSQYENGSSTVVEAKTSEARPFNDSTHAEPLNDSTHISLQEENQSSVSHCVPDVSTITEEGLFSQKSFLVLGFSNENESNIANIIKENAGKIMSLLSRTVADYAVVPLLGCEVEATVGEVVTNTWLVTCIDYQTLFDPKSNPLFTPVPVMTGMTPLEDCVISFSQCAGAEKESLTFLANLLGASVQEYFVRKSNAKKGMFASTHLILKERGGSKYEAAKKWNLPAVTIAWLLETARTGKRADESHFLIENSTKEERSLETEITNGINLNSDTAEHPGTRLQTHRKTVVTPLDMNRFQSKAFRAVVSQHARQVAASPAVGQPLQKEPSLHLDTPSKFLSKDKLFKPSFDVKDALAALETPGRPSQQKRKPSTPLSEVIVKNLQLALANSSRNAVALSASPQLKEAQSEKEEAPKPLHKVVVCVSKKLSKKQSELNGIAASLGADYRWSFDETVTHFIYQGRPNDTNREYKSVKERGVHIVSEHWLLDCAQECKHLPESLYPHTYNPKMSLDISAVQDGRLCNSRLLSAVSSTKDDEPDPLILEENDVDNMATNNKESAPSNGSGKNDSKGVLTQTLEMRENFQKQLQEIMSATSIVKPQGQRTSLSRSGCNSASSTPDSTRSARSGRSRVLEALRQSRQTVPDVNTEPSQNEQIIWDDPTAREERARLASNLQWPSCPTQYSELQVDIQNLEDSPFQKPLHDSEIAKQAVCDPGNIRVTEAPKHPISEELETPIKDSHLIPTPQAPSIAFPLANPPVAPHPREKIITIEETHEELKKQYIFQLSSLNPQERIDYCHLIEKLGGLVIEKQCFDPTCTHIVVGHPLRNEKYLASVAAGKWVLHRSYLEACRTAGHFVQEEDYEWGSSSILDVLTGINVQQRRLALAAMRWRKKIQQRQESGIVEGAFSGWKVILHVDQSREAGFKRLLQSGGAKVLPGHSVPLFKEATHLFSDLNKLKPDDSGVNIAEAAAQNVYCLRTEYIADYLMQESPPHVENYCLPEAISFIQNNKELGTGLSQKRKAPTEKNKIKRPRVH

As for `NC(=O)NO` [hydroxyurea], in assay [1], the “accumulation of cells in early S phase” value is “significant accumulation of cells in early S phase”. In assay [2], the “accumulation of cells in early S-phase” value is “accumulation of cells in early S-phase”.

B1: Chk1 (serine/threonine protein kinase Chk1) (enzyme, UniProt O14757 1-476, looked up)
chain: MAVPFVEDWDLVQTLGEGAYGEVQLAVNRVTEEAVAVKIVDMKRAVDCPENIKKEICINKMLNHENVVKFYGHRREGNIQYLFLEYCSGGELFDRIEPDIGMPEPDAQRFFHQLMAGVVYLHGIGITHRDIKPENLLLDERDNLKISDFGLATVFRYNNRERLLNKMCGTLPYVAPELLKRREFHAEPVDVWSCGIVLTAMLAGELPWDQPSDSCQEYSDWKEKKTYLNPWKKIDSAPLALLHKILVENPSARITIPDIKKDRWYNKPLKKGAKRPRVTSGGVSESPSGFSKHIQSNLDFSPVNSASSEENVKYSSSQPEPRTGLSLWDTSPSYIDKLVQGISFSQPTCPDHMLLNSQLLGTPGSSQNPWQRLVKRMTRFFTKLDADKSYQCLKETCEKLGYQWKKSCMNQVTISTTDRRNNKLIFKVNLLEMDDKILVDFRLSKGDGLEFKRHFLKIKGKLIDIVSSQKIWLPAT
notes: Endogenous protein in HeLa whole cell extract; HeLa is a human cell line; also called Chk1 protein kinase
B1: the binding result in assay [3] and in assay [4] was “no binding” each time.
